Measurements from patent US9808434B2, “Compound for treating cancer and diabetes” (CITY OF HOPE, priority 2011, dated 2017).

Assays:
Stat3, HIF-1α = assay: Stat3 phosphorylation and HIF-1α expression in SKOV3, immunoblotting; format: cell-based, human; conditions: SKOV3, 24 hours, 1-10 μM
Description: SKOV3 cells were incubated with various concentrations of COH-SR4 (1˜10 μM) for 24 hours. Whole-cell lysates were analyzed by immunoblotting with antibodies against phosphorylated and total form of Stat3, Akt and MAPK, and HIF-1α. GAPDH was used as a loading control.

B16-F0 [1] = assay: MTT assay, B16-F0; format: cell-based; conditions: Mus musculus
Description: (§1) Cell density measurements were performed using a hemocytometer to count reproductive cells resistant to staining with trypan blue. Approximately 20,000 cells were plated into each well of 96-well flat-bottomed micro-titer plates. After 12 h or 24 h incubation at 37° C., medium containing either COH-SR4 (ranging 0-200 μM) or elesclomol (ranging 0-20 μM) were added to the cells. After 24 h, 48 h or 96 h incubation, 20 μL of 5 mg/mL MTT were introduced to each well and incubated for 2 h. The plates were centrifuged and medium was decanted. Cells were subsequently dissolved in 100 μl DMSO with gentle shaking for 2 h at room temperature, followed by measurement of OD570 (91).
Cells of highly aggressive mouse melanoma cell line B16-F0 or human melanoma cell line Hs600T were incubated with various doses of COH-SR4 (1, 2.5, 5, 10, 25, 50, or 100 μM). The cell viabilities after treatment of 48 hours and 96 hours were measured and summarized in FIGS. 54A and 55A, respectively. […] Data were presented as mean±Standard Deviation from two separate determinations with eight replicate each (n=16).

[2] = test system: HAVSMC, NHDFs, melanocytes; assay: MTT assay, normal cells; format: cell-based, human; conditions: 24 h and 48 h
Description: as §1

B16-F0 [3] = assay: Colony formation assay, B16-F0; format: cell-based, mouse; conditions: 10 μM, vs untreated control
Description: Cell survival was evaluated using a standard colony-forming assay. […] After 7 or 10 days, adherent colonies were fixed, stained with 0.5% methylene blue for 30 min and colonies were counted using the Innotech Alpha Imager HP (91).

[4] = test system: isolated mouse liver mitochondria; assay: Oxygen consumption rate in isolated liver mitochondria; conditions: increasing concentrations
Description: Mitochondria were isolated from the livers of 10 week old male C57BL/6 mice. Mice were euthanized by CO2 inhalation followed by cervical dislocation. Livers were removed, minced with scissors, and immediately placed in ˜10 volumes of ice-cold mitochondria isolation medium (250 mM sucrose, 10 mM Tris-HCl, 1 mM EGTA, 1% fatty acid/endotoxin-free BSA, pH 7.4). The presence of BSA in the medium allowed the endogenous free fatty acids to be chelated from the homogenate suspension. The tissues were homogenized using 25-30 strokes in Potter-Elvehjem tissue grinder. Following centrifugation at 800×g for 10 min at 4° C., the fats/lipids were carefully aspirated, and the remaining supernatant was filtered through sterile 0.40 micron nylon mesh membrane and centrifuged at 8,000×g for 10 min at 4° C. […] The mitochondrial protein concentration was determined by the DC Protein Assay kit (Bio-Rad, Hercules, Calif.) with BSA as a standard. […]
Isolated mouse liver mitochondria (2 μg/well or 5 μg/well) were seeded on Seahorse 96-well plate, and respiration (OCR) was measured on mitochondria respiring either on pyruvate (10 mM) and malate (2 mM) or succinate (10 mM) and rotenone (2 μM) using a Seahorse 96 Flux Analyzers according to Rogers et al (90).

[5] = test system: isolated mouse liver mitochondria; assay: Mitochondrial swelling assay; conditions: potassium acetate buffer with valinomycin
Description: Mitochondrial swelling was measured in non-respiring mouse liver mitochondria incubated in buffered isotonic potassium acetate in the presence of valinomycin (24,25). […] Absorbance of the mitochondrial suspension before and after addition test compounds was measured every 10 seconds using a Varian Cary 300 spectrophotometer (Agilent Technologies, Santa Clara, Calif.). Swelling was recorded from the decrease in absorbance at 600 nm and expressed as percentage from initial reading after addition of mitochondria.
Mitochondrial membrane swelling was detected as decrease in absorbance at 600 nm following the addition of COH-SR4 or FCCP alone or in the presence of cysclosporin A (CSA, 1 μM) on isolated mouse liver mitochondria respiring on succinate (10 mM) in the presence of rotenone (1 μM) and valinomycin (5 μM) in potassium acetate buffer. […] Arrow indicates time of addition of test compounds into the mitochondria suspension.

`O=C(Nc1cc(Cl)cc(Cl)c1)Nc1cc(Cl)cc(Cl)c1` [COH-SR4, 1,3-bis(3,5-dichlorophenyl) urea] was tested, and the “phosphorylation of Stat3 and HIF-1α protein expression” value (Stat3, HIF-1α) was “inhibited phosphorylation of Stat3 protein and HIF-1α protein expression”, the IC50 (B16-F0 [1]; B16F0, 48 h, 48 hours) was roughly 14 µM and the IC50 (B16-F0 [1]; B16F0, 96 h, 96 hours) was roughly 5 µM. The “cytotoxicity in normal cells” value [2] was “did not cause any significant cytotoxicity”, the colony formation (B16-F0 [3]) was 38±9% and the “OCR of mitochondria respiring on pyruvate and malate or succinate-rotenone” value [4] was “dose-dependently increased OCR of mitochondria”. The “mitochondrial swelling (absorbance at 600 nm)” value [5] was “mitochondrial swelling was observed”.
